Columns and labels:
Mino cells = experiment: Antiproliferative effect, MTS cell viability assay, Mino cells; format: cell-based; settings: Homo sapiens, MINO, Mino mantle cell lymphoma cells; read-out: IC50 (anti-proliferation) Mino cells
In short: (§1)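 Mino and JeKo-1 mantle B-cell lymphoma lines were exposed to compound at 0, 0.001, 0.01, 0.1, 1 and 10 μM for 72 h. Viability was read by MTS reduction to formazan, measured as absorbance at 490 nm.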

JeKo-1 cells = experiment: Antiproliferative effect, MTS cell viability assay, JeKo-1 cells; format: cell-based; settings: Homo sapiens; JeKo-1 mantle cell lymphoma cells; read-out: IC50 (anti-proliferation) JeKO-1 cells
In short: as §1

MOLT-4 cell = experiment: Cell apoptosis by flow cytometry, MOLT-4 cells; format: cell-based; settings: 1 and 10 μM, 72 hours, in vitro
Procedure: (§2) Cell apoptosis induced by treatment of exemplary compounds was measured by flow cytometry.
(§3) Flow cytometry analysis was performed after staining of the cells with PI and 7-AAD. For PI staining, 0.5×10^6 cells/mL were centrifuged at 1500 rpm for 5 min, supernatant was removed, and cell pellet was gently suspended with 1 ml Krishan buffer and then incubated at 4° C. in the dark for 60 min. Apoptosis was determined by Cytomic's FC500 Flow Cytometer (Beckman Coulter) and the data were analyzed by Win Cycle Multicycle Software (De Novo Software). For the 7-AAD staining, 0.5×10^6 cells were washed with PBS and centrifuged at 1500 rpm for 5 min. Supernatant was removed and the cell pellet was suspended in 100 μL PBS. 10 μL 7-AAD was added to each tube and incubated for 20 min at room temperature in the dark. 7-AAD labeled-cells were analyzed by Cytomic's FC500 Flow Cytometry (Beckman Coulter) and FCS Express Flow Cytometry Data Analysis software (DeNovo Software). For morphologic analysis of apoptosis by light microscopy, cells were incubated with Mock or with […] for 72 h. Control or drug treated-cells were cytospun on glass slides, stained with Wright-Giemsa, and then examined by light microscopy. Morphological changes associated with apoptosis included cellular shrinkage, nuclear condensation, nuclear fragmentation, and formation of apoptotic bodies. […]

Namalwa cell = experiment: Cell apoptosis by flow cytometry, Namalwa cells; format: cell-based; settings: 1 and 10 μM, 72 hours, in vitro
Procedure: as §2, §3

JeKo-1 cell = experiment: Cell apoptosis by flow cytometry, JeKo-1 cells; format: cell-based; settings: 0.1, 1, and 10 μM, 72 hours, in vitro
Procedure: as §2, §3

Mino cell = experiment: Cell apoptosis by flow cytometry, Mino cells; format: cell-based; settings: 1 and 10 μM, 72 hours, in vitro
Procedure: as §2, §3

[1] = tested on: primary human CLL cell CTG-3763; experiment: Ex vivo cell inhibition, Cell Titer Glo viability, primary CLL cell CTG-3763; format: cell-based; settings: 10 nM to 50 μM, 6 days
Procedure: (§4) Primary human Human Chronic Lymphocytic Leukemia cell lines were used to measure ex vivo cell inhibition by exemplary compounds. The cells were incubated with test compounds at a dose range of 10 nM to 50 μM for 6 days. Cell Titer Glo data were gathered for cell viability evaluation.

[2] = tested on: primary human CLL cell CTG-3754; experiment: Ex vivo cell inhibition, Cell Titer Glo viability, primary CLL cell CTG-3754; format: cell-based; settings: 10 nM to 50 μM, 6 days
Procedure: as §4

Jeko-1 xenograft tumor = experiment: In vivo tumor inhibition efficacy, JeKo-1 xenograft in NOD/SCID mice; settings: 20 mg/kg daily oral gavage for 3 weeks
Procedure: JeKo-1 cells were obtained from American Type Culture Collection (ATCC, Manassas, VA). cells were maintained in RPMI 1640 (Life Technologies, Grand Island, NY) supplemented with 10% heat-inactivated fetal bovine serum (56° C. for 30 minutes), penicillin (10,000 units/mL; Sigma, St Louis, Mo), streptomycin (10 mg/mL; Sigma), gentamicin (50 mg/mL; Life Technologies), amphotericin B (25 mg/mL; Sigma), and L-glutamine (200 mM, 29.2 mg/mL; Life Technologies). culture, as previously described (29, 30). JeKo-1 cells (10 million) were subcutaneously implanted into the flank of NOD/SCID mice. When the average tumor volume reached approximately 300 mm^3, the following treatments were administered in cohorts of 5 mice for each treatment: vehicle alone, 20 mg/kg ibrutinib, 20 mg/kg Compound 2, and 20 mg/kg Compound 161 was administered daily via oral gavage for 3 weeks. Tumor growth was monitored every other day by calipers and tumor volume was calculated using the equation: (½(length×width^2)).

BTK [3] = biological target: T1, BTK (Homo sapiens, UniProt Q06187); experiment: BTK degradation, DC50 and Dmax of Table 1 (cell line not given); format: cell-based; set-up: endogenous in cells; settings: for DC50: concentration giving 50% reduction of BTK expression level
BTK [4] = biological target: T1, BTK; experiment: Degradation of BTK protein in JeKo-1 cells (Western blot; DC50, Dmax); settings: JeKo-1 mantle cell lymphoma cells, various concentrations, 24 hours
Procedure: Namalwa, JeKo-1, or Mino cells were plated in 24-well plates at a density of 10^5 cells/well. Media containing various drug concentrations were added on the day following plating (day 0) and allowed to incubate for 24 hours for Western blot. Media with the tested compound was changed every other day. […] Media were removed and dishes were washed with 1×DPBS. Lysates were made by adding 150 μL of complete lysis solution and scraping cells into a 1.5 mL microcentrifuge tube. Lysates were placed on a rotisserie at 4° C. for 30 min and then spun at 4° C. at 12000 rcf for 10 min. Supernatants were assayed for protein content, snap-frozen, and stored a −80° C. if not run immediately. Then 50 μg of protein was subjected to Western blot protocol. […] They were then imaged on a LICOR infrared scanner.

BTK [5] = biological target: T1, BTK; experiment: Degradation of BTK protein in Namalwa cells (Western blot; DC50, Dmax); settings: Namalwa B lymphocyte cells, Western blot; for degradation of BTK protein: various concentrations, 24 hours

T1 sequence (Q06187 whole entry): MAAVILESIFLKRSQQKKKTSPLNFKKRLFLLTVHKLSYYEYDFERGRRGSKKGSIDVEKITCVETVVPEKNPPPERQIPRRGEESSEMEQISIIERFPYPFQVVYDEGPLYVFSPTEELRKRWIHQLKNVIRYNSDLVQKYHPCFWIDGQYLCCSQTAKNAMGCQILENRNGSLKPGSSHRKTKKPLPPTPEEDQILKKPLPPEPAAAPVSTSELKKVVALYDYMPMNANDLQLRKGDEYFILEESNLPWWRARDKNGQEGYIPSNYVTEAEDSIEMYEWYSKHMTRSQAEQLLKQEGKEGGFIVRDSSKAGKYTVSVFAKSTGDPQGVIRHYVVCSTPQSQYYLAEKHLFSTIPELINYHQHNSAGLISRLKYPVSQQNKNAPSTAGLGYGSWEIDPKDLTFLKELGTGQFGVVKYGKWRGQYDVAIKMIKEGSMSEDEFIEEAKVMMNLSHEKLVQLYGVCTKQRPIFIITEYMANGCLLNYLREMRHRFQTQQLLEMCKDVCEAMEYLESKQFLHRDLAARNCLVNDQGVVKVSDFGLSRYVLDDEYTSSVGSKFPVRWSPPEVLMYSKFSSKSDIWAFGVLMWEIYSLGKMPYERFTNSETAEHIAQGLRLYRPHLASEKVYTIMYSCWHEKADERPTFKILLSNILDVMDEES

Dmax (BTK [3]) [%]	DC50 (BTK [3]) [µM]	degradation of BTK protein (BTK [4])	degradation of BTK protein (BTK [5])	degradation of BTK protein at 10^−6 M (BTK [5]; 10^−6 M)	SMILES	IC50 (Mino cells) [µM]	IC50 (JeKo-1 cells) [µM]	induction of cell apoptosis (MOLT-4 cell)	induction of cell apoptosis (Namalwa cell)	induction of cell apoptosis (JeKo-1 cell)	induction of cell apoptosis (Mino cell)	effect on primary human CLL cell viability [1]	effect on primary human CLL cell viability [2]	efficacy in inhibiting xenograft tumor growth (Jeko-1 xenograft tumor)
> 90	< 0.01	dose-dependent degradation	dose-dependent degradation		Nc1ncnc2c1c(-c1ccc(Oc3ccccc3)cc1)nn2C1CCN(CCOCCOCCN2CCN(c3ccc4c(c3)CN(C3CCC(=O)NC3=O)C4=O)CC2)CC1 (centres unmarked) [Compound 2, 3-(5-(4-(2-(2-(2-(4-(4-amino-3-(4-phenoxyphenyl)-1H-pyrazolo(3,4-d)pyrimidin-1-yl)piperidin-1-yl)ethoxy)ethoxy)ethyl)piperazin-1-yl)-1-oxoisoindolin-2-yl)piperidine-2,6-dione]	< 1	< 1	induction of MOLT-4 cell apoptosis	induction of Namalwa cell apoptosis	induction of JeKo-1 cell apoptosis	induction of Mino cell apoptosis	dose-dependent effect	dose-dependent effect	inhibiting Jeko-1 xenograft tumor growth
> 90	0.01 to 0.05		dose-dependent degradation	degradation	Nc1ncnc2c1c(-c1ccc(Oc3ccccc3)cc1)nn2[C@@H]1CCCN(C2CCN(C(=O)N3CCC(N4CCN(c5ccc6c(c5)C(=O)N(C5CCC(=O)NC5=O)C6=O)CC4)CC3)CC2)C1 (stereo partly drawn) [Compound 161, 5-(4-(1-((R)-3-(4-amino-3-(4-phenoxyphenyl)-1H-pyrazolo(3,4-d)pyrimidin-1-yl)-(1,4′-bipiperidine)-1′-carbonyl)piperidin-4-yl)piperazin-1-yl)-2-(2,6-dioxopiperidin-3-yl)isoindoline-1,3-dione]	< 1	< 1							inhibiting Jeko-1 xenograft tumor growth
